{"source": "patent US8796289B2", "about": "(AbbVie Inc., priority 2011, dated 2014)"}
{"molecular_target": "GST-tagged-Wee1 kinase (Homo sapiens, UniProt P30291)", "sequence (P30291 whole entry)": "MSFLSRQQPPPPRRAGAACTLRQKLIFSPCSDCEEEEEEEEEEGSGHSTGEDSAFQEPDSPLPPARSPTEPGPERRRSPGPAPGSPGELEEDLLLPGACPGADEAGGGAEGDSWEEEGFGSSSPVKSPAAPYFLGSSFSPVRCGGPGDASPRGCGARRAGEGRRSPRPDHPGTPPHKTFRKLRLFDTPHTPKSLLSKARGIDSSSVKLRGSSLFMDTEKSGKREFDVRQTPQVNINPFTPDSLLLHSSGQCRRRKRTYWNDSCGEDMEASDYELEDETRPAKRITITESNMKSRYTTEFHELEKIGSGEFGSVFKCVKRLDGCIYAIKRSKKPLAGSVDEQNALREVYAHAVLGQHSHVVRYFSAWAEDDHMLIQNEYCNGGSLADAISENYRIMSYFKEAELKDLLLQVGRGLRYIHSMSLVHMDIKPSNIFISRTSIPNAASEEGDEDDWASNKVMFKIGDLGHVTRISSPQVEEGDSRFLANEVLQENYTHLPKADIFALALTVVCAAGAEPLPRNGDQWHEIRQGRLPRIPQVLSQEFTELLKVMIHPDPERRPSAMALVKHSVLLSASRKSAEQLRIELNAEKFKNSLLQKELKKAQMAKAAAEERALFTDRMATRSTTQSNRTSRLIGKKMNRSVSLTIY", "experiment": "Wee1 time-resolved fluorescence equilibrium binding assay (displacement of Oregon Green-labeled ATP-competitive kinase probe)", "conditions": "not given", "description": "(§1) Wee1 kinase was assayed using a time-resolved fluorescence equilibrium binding assay monitoring displacement of a rapidly reversible Oregon Green-labeled ATP-competitive kinase probe (N-(2-(2-(2-(4-(4-(5-chloro-4-(2-(1-hydroxycyclobutyl)thiazol-5-yl)-1H-pyrrolo[2,3-b]pyridin-2-yl)phenyl)piperazin-1-yl)ethoxy)ethoxy)ethyl)-2′,7′-difluoro-3′,6′-dihydroxy-3-oxo-3H-spiro[isobenzofuran-1,9′-xanthene]-5-carboxamide) by competitive Wee1 inhibitors.", "units": {"Ki": "nM"}}
{"compound": "Cn1ccnc1-c1nn(-c2c(Cl)cccc2Cl)c(=O)c2cnc(Nc3ccc4c(c3)CNCC43CC3)nc12", "note": "[Example 356, 6-(2,6-dichlorophenyl)-2-(2′,3′-dihydro-1′H-spiro[cyclopropane-1,4′-isoquinolin]-7′-ylamino)-8-(1-methyl-1H-imidazol-2-yl)pyrimido[4,5-d]pyridazin-5(6H)-one]", "Ki": 1}
{"compound": "CN1Cc2cc(Nc3ncc4c(=O)n(-c5c(Cl)cccc5Cl)nc(-c5nccn5C)c4n3)ccc2C2(CC2)C1", "note": "[Example 357, 6-(2,6-dichlorophenyl)-2-[(2′-methyl-2′,3′-dihydro-1′H-spiro[cyclopropane-1,4′-isoquinolin]-7′-yl)amino]-8-(1-methyl-1H-imidazol-2-yl)pyrimido[4,5-d]pyridazin-5(6H)-one]", "Ki": 0.87}
{"compound": "CN1CCN(c2ccc(Nc3ncc4c(=O)n(-c5c(Cl)cncc5Cl)nc(-c5ccncc5)c4n3)cc2)CC1", "note": "[Example 358, 6-(3,5-dichloropyridin-4-yl)-2-{[4-(4-methylpiperazin-1-yl)phenyl]amino}-8-(pyridin-4-yl)pyrimido[4,5-d]pyridazin-5(6H)-one]", "Ki": 0.47}
{"compound": "CN1Cc2cc(Nc3ncc4c(=O)n(-c5c(Cl)cncc5Cl)nc(-c5cn(C)cn5)c4n3)ccc2C2(CC2)C1", "note": "[Example 359, 6-(3,5-dichloropyridin-4-yl)-2-[(2′-methyl-2′,3′-dihydro-1′H-spiro[cyclopropane-1,4′-isoquinolin]-7′-yl)amino]-8-(1-methyl-1H-imidazol-4-yl)pyrimido[4,5-d]pyridazin-5(6H)-one]", "Ki": 5}
{"compound": "CN1CCN(c2ccc(Nc3ncc4c(=O)n(-c5c(Cl)cncc5Cl)nc(-c5cncs5)c4n3)cc2)CC1", "note": "[Example 360, 6-(3,5-dichloropyridin-4-yl)-2-{[4-(4-methylpiperazin-1-yl)phenyl]amino}-8-(1,3-thiazol-5-yl)pyrimido[4,5-d]pyridazin-5(6H)-one]", "Ki": 2.4}
{"compound": "CN1CCN(c2ccc(Nc3ncc4c(=O)n(-c5c(Cl)cncc5Cl)nc(-c5cn(C)cn5)c4n3)cc2)CC1", "note": "[Example 361, 6-(3,5-dichloropyridin-4-yl)-8-(1-methyl-1H-imidazol-4-yl)-2-{[4-(4-methylpiperazin-1-yl)phenyl]amino}pyrimido[4,5-d]pyridazin-5(6H)-one]", "Ki": 4.4}
{"compound": "CN1CCN(c2ccc(Nc3ncc4c(=O)n(-c5c(Cl)cncc5Cl)nc(-c5ccccn5)c4n3)cc2)CC1", "note": "[Example 362, 6-(3,5-dichloropyridin-4-yl)-2-{[4-(4-methylpiperazin-1-yl)phenyl]amino}-8-(pyridin-2-yl)pyrimido[4,5-d]pyridazin-5(6H)-one]", "Ki": 1.8}
{"compound": "COc1cc(N2CCC(N3CCN(C)CC3)CC2)ccc1Nc1ncc2c(=O)n(-c3c(Cl)cccc3Cl)nc(C)c2n1", "note": "[Example 363, 6-(2,6-dichlorophenyl)-2-({2-methoxy-4-[4-(4-methylpiperazin-1-yl)piperidin-1-yl]phenyl}amino)-8-methylpyrimido[4,5-d]pyridazin-5(6H)-one]", "Ki": 40}
{"compound": "Cc1nn(-c2c(Cl)cccc2Cl)c(=O)c2cnc(Nc3ccc4c(c3)CN(C)CC4(C)C)nc12", "note": "[Example 364, 6-(2,6-dichlorophenyl)-8-methyl-2-[(2,4,4-trimethyl-1,2,3,4-tetrahydroisoquinolin-7-yl)amino]pyrimido[4,5-d]pyridazin-5(6H)-one]", "Ki": 0.61}
{"compound": "Cc1nn(-c2ncccc2Cl)c(=O)c2cnc(Nc3ccc4c(c3)CN(C)CC4(C)C)nc12", "note": "[Example 365, 6-(3-chloropyridin-2-yl)-8-methyl-2-[(2,4,4-trimethyl-1,2,3,4-tetrahydroisoquinolin-7-yl)amino]pyrimido[4,5-d]pyridazin-5(6H)-one]", "Ki": 2.9}
{"compound": "Cc1nn(-c2c(F)cccc2Cl)c(=O)c2cnc(Nc3ccc4c(c3)CC(N(C)C)C4)nc12", "note": "(stereo not shown) [Example 366, 6-(2-chloro-6-fluorophenyl)-2-{[2-(dimethylamino)-2,3-dihydro-1H-inden-5-yl]amino}-8-methylpyrimido[4,5-d]pyridazin-5(6H)-one]", "Ki": 0.53}
{"compound": "Cc1nn(-c2ncccc2Cl)c(=O)c2cnc(Nc3ccc4c(c3)CC(N(C)C)C4)nc12", "note": "(stereo not shown) [Example 367, 6-(3-chloropyridin-2-yl)-2-{[2-(dimethylamino)-2,3-dihydro-1H-inden-5-yl]amino}-8-methylpyrimido[4,5-d]pyridazin-5(6H)-one]", "Ki": 3.7}
{"compound": "Cc1cc(Nc2ncc3c(=O)n(-c4c(F)cccc4Cl)nc(C)c3n2)ccc1N1CCCN(C)CC1", "note": "[Example 368, 6-(2-chloro-6-fluorophenyl)-8-methyl-2-(3-methyl-4-(4-methyl-1,4-diazepan-1-yl)phenylamino)pyrimido[4,5-d]pyridazin-5(6H)-one]", "Ki": 0.54}
{"compound": "Cc1cc(Nc2ncc3c(=O)n(-c4ncccc4Cl)nc(C)c3n2)ccc1N1CCCN(C)CC1", "note": "[Example 369, 6-(3-chloropyridin-2-yl)-8-methyl-2-(3-methyl-4-(4-methyl-1,4-diazepan-1-yl)phenylamino)pyridazino[4,5-d]pyrimidin-5(6H)-one]", "Ki": 1.8}
{"compound": "Cc1nn(-c2c(Cl)cccc2Cl)c(=O)c2cnc(Nc3ccc4c(c3)CN(CC(F)(F)F)CC4(C)C)nc12", "note": "[Example 370, 6-(2,6-dichlorophenyl)-2-{[4,4-dimethyl-2-(2,2,2-trifluoroethyl)-1,2,3,4-tetrahydroisoquinolin-7-yl]amino}-8-methylpyrimido[4,5-d]pyridazin-5(6H)-one]", "Ki": 35}
{"compound": "Cn1cnc(-c2nn(-c3c(Cl)cncc3Cl)c(=O)c3cnc(Nc4ccc5c(c4)CNCC54CC4)nc23)c1", "note": "[Example 372, 6-(3,5-dichloropyridin-4-yl)-2-(2′,3′-dihydro-1′H-spiro[cyclopropane-1,4′-isoquinolin]-7′-ylamino)-8-(1-methyl-1H-imidazol-4-yl)pyrimido[4,5-d]pyridazin-5(6H)-one]", "Ki": 3.7}
{"compound": "Cn1cnc(-c2nn(-c3ccncc3Cl)c(=O)c3cnc(Nc4ccc5c(c4)CNCC54CC4)nc23)c1", "note": "[Example 373, 6-(3-chloropyridin-4-yl)-2-(2′,3′-dihydro-1′H-spiro[cyclopropane-1,4′-isoquinolin]-7′-ylamino)-8-(1-methyl-1H-imidazol-4-yl)pyrimido[4,5-d]pyridazin-5(6H)-one]", "Ki": 69}
{"compound": "CC(=O)N1CCN(c2ccc(Nc3ncc4c(=O)n(-c5c(Cl)cccc5Cl)nc(-c5ccccn5)c4n3)cc2)CC1", "note": "[Example 374, 2-{[4-(4-acetylpiperazin-1-yl)phenyl]amino}-6-(2,6-dichlorophenyl)-8-(pyridin-2-yl)pyrimido[4,5-d]pyridazin-5(6H)-one]", "Ki": 0.67}
{"compound": "CC(=O)N1Cc2cc(Nc3ncc4c(=O)n(-c5c(Cl)cccc5Cl)nc(-c5ccccn5)c4n3)ccc2C2(CC2)C1", "note": "[Example 375, 2-[(2′-acetyl-2′,3′-dihydro-1′H-spiro[cyclopropane-1,4′-isoquinolin]-7′-yl)amino]-6-(2,6-dichlorophenyl)-8-(pyridin-2-yl)pyrimido[4,5-d]pyridazin-5(6H)-one]", "Ki": 1.2}
{"compound": "CS(=O)(=O)N1CCN(c2ccc(Nc3ncc4c(=O)n(-c5c(Cl)cccc5Cl)nc(-c5ccccn5)c4n3)cc2)CC1", "note": "[Example 376, 6-(2,6-dichlorophenyl)-2-({4-[4-(methylsulfonyl)piperazin-1-yl]phenyl}amino)-8-(pyridin-2-yl)pyrimido[4,5-d]pyridazin-5(6H)-one]", "Ki": 1.3}
{"compound": "CS(=O)(=O)N1Cc2cc(Nc3ncc4c(=O)n(-c5c(Cl)cccc5Cl)nc(-c5ccccn5)c4n3)ccc2C2(CC2)C1", "note": "[Example 377, 6-(2,6-dichlorophenyl)-2-{[2′-(methylsulfonyl)-2′,3′-dihydro-1′H-spiro[cyclopropane-1,4′-isoquinolin]-7′-yl]amino}-8-(pyridin-2-yl)pyrimido[4,5-d]pyridazin-5(6H)-one]", "Ki": 1.3}
{"compound": "CC(=O)N1CCN(c2ccc(Nc3ncc4c(=O)n(-c5c(Cl)cccc5Cl)nc(-c5ccncc5)c4n3)cc2)CC1", "note": "[Example 378, 2-{[4-(4-acetylpiperazin-1-yl)phenyl]amino}-6-(2,6-dichlorophenyl)-8-(pyridin-4-yl)pyrimido[4,5-d]pyridazin-5(6H)-one]", "Ki": 0.49}
{"compound": "CC(=O)N1Cc2cc(Nc3ncc4c(=O)n(-c5c(Cl)cccc5Cl)nc(-c5ccncc5)c4n3)ccc2C2(CC2)C1", "note": "[Example 379, 2-[(2′-acetyl-2′,3′-dihydro-1′H-spiro[cyclopropane-1,4′-isoquinolin]-7′-yl)amino]-6-(2,6-dichlorophenyl)-8-(pyridin-4-yl)pyrimido[4,5-d]pyridazin-5(6H)-one]", "Ki": 0.45}
{"compound": "CS(=O)(=O)N1CCN(c2ccc(Nc3ncc4c(=O)n(-c5c(Cl)cccc5Cl)nc(-c5ccncc5)c4n3)cc2)CC1", "note": "[Example 380, 6-(2,6-dichlorophenyl)-2-({4-[4-(methylsulfonyl)piperazin-1-yl]phenyl}amino)-8-(pyridin-4-yl)pyrimido[4,5-d]pyridazin-5(6H)-one]", "Ki": 0.61}
{"compound": "CS(=O)(=O)N1Cc2cc(Nc3ncc4c(=O)n(-c5c(Cl)cccc5Cl)nc(-c5ccncc5)c4n3)ccc2C2(CC2)C1", "note": "[Example 381, 6-(2,6-dichlorophenyl)-2-{[2′-(methylsulfonyl)-2′,3′-dihydro-1′H-spiro[cyclopropane-1,4′-isoquinolin]-7′-yl]amino}-8-(pyridin-4-yl)pyrimido[4,5-d]pyridazin-5(6H)-one]", "Ki": 0.81}
{"compound": "CN1CCN(c2ccc(Nc3ncc4c(=O)n(-c5ccncc5Cl)nc(-c5ccncc5)c4n3)cc2)CC1", "note": "[Example 382, 6-(3-chloropyridin-4-yl)-2-{[4-(4-methylpiperazin-1-yl)phenyl]amino}-8-(pyridin-4-yl)pyrimido[4,5-d]pyridazin-5(6H)-one]", "Ki": 7.6}
{"compound": "O=c1c2cnc(Nc3ccc4c(c3)CNCC43CC3)nc2c(-c2ccncc2)nn1-c1ccncc1Cl", "note": "[Example 383, 6-(3-chloropyridin-4-yl)-2-(2′,3′-dihydro-1′H-spiro[cyclopropane-1,4′-isoquinolin]-7′-ylamino)-8-(pyridin-4-yl)pyrimido[4,5-d]pyridazin-5(6H)-one]", "Ki": 1.1}
{"molecular_target": "GST-tagged-Wee1 kinase (Homo sapiens, UniProt P30291)", "experiment": "Wee1 time-resolved fluorescence equilibrium binding assay (displacement of Oregon Green-labeled ATP-competitive kinase probe)", "conditions": "read-out: Wee-1 inhibition Ki", "description": "as §1", "units": {"Ki": "nM"}}
{"compound": "Cc1nn(-c2c(Cl)cccc2Cl)c(=O)c2cnc(Nc3ccc4c(c3)CNCC4)nc12", "note": "[Example 371]", "Ki": 0.2}
